# Source: patent US9108983B2, “Pyrrole compounds, a process for their preparation and pharmaceutical compositions containing them” (LES LABORATOIRES SERVIER, priority 2013, dated 2015)
# Where a name gives a salt, the structure may show the parent alone. Read-outs that look alike come from different tables or passages of the source.
# Key:
# Bcl-2 protein = Bcl-2 protein (histag-Bcl-2, UniProtKB P10415) (Homo sapiens (Human), UniProt P10415); assay: Inhibition of Bcl-2 by the fluorescence polarisation technique; type: binding; settings: incubation for 2 hours
# Bcl-2 protein, sequence (P10415 whole entry): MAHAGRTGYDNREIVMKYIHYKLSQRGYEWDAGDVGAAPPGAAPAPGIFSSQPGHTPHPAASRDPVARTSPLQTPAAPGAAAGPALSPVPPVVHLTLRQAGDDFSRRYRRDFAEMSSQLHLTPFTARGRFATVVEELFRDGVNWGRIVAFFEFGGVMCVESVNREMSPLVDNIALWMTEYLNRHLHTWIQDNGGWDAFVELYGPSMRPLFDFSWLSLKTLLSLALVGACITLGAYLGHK
# Method: The fluorescence polarisation tests were carried out on microplates (384 wells). The Bcl-2 protein, labelled (histag-Bcl-2 such that Bcl-2 corresponds to the UniProtKB® primary accession number: P10415), at a final concentration of 2.50×10^−8 M, is mixed with a fluorescent peptide (Fluorescein-[…]), at a final concentration of 1.00×10^−8 M in a buffer solution (Hepes 10 mM, NaCl 150 mM, Tween20 0.05%, pH 7.4), in the presence or absence of increasing concentrations of test compounds. After incubation for 2 hours, the fluorescence polarisation is measured.
# [1] = tested on: RS4;11 leukaemia tumour line; assay: In vitro cytotoxicity (Microculture Tetrazolium Assay); type: cell-based; settings: RS4;11 cells, exposed for 48 hours, cell viability, read-out: IC50 (nM) MTT RS4;11
# Method: The cytotoxicity studies were carried out on the RS4;11 leukaemia tumour line.
# The cells are distributed onto microplates and exposed to the test compounds for 48 hours.
# The cell viability is then quantified by a colorimetric assay, the Microculture Tetrazolium Assay (Cancer Res., 1987, 47, 939-942).
structure (smiles),measurement,setting,value
"Cc1c(C(=O)N(c2ccc(O)cc2)c2cnc3c(ccn3C)c2)cc(-c2cc3c(cc2C(=O)N2Cc4ccccc4C[C@H]2CN2CCN(C)CC2)OCO3)n1C [Example 69, N-(4-Hydroxyphenyl)-1,2-dimethyl-5-(6-{[(3S)-3-[(4-methylpiperazin-1-yl)methyl]-3,4-dihydroisoquinolin-2(1H)-yl]carbonyl}-1,3-benzodioxol-5-yl)-N-(1-methyl-1H-pyrrolo[2,3-b]pyridin-5-yl)-1H-pyrrole-3-carboxamide hydrochloride]",IC50,Bcl-2 protein; read-out: IC50 (nM) Bcl-2 FP,5.3 nM
same,IC50,"[1]; Homo sapiens, RS4-11, 48 h",3.68 nM
"Cc1c(C(=O)N(c2ccccc2)c2cnc3c(ccn3C)c2)cc(-c2cc3c(cc2C(=O)N2Cc4ccccc4C[C@H]2CN2CCOCC2)OCO3)n1C [Example 65, 1,2-Dimethyl-N-(1-methyl-1H-pyrrolo[2,3-b]pyridin-5-yl)-5-(6-{[(3S)-3-(morpholin-4-ylmethyl)-3,4-dihydroisoquinolin-2(1H)-yl]carbonyl}-1,3-benzodioxol-5-yl)-N-phenyl-1H-pyrrole-3-carboxamide hydrochloride]",IC50,Bcl-2 protein; read-out: IC50 (nM) Bcl-2 FP,21.9 nM
same,IC50,"[1]; Homo sapiens, RS4-11, 48 h",113 nM
"Cc1c(C(=O)N(c2ccc(O)cc2)c2cc(C#N)n(C)c2)cc(-c2cc(Cl)ccc2C(=O)N2Cc3ccccc3C[C@H]2CN2CCOCC2)n1C [Example 108, 5-(5-Chloro-2-{[(3S)-3-(morpholin-4-ylmethyl)-3,4-dihydroisoquinolin-2(1H)-yl]carbonyl}phenyl)-N-(5-cyano-1-methyl-1H-pyrrol-3-yl)-N-(4-hydroxyphenyl)-1,2-dimethyl-1H-pyrrole-3-carboxamide hydrochloride]",IC50,Bcl-2 protein; read-out: IC50 (nM) Bcl-2 FP,3.9 nM
same,IC50,"[1]; Homo sapiens, RS4-11, 48 h",15.4 nM
"COc1ccc(C(=O)N2Cc3ccccc3C[C@H]2CN2CCOCC2)c(-c2cc(C(=O)N(c3ccc(O)c(F)c3)c3cnn(C)c3)c(C)n2C)c1 [Example 407, N-(3-Fluoro-4-hydroxyphenyl)-5-(5-methoxy-2-{[(3S)-3-(morpholin-4-ylmethyl)-3,4-dihydroisoquinolin-2(1H)-yl]carbonyl}phenyl)-1,2-dimethyl-N-(1-methyl-1H-pyrazol-4-yl)-1H-pyrrole-3-carboxamide hydrochloride]",IC50,Bcl-2 protein; read-out: IC50 (nM) Bcl-2 FP,20.6 nM
same,IC50,"[1]; Homo sapiens, RS4-11, 48 h",150 nM
"Cc1c(N(C(=O)c2cc(-c3cc(Cl)ccc3C(=O)N3Cc4ccccc4C[C@H]3CN3CCOCC3)n(C)c2C)c2ccc(O)cc2)cn(C)c1C#N [Example 458, 5-(5-Chloro-2-{[(3S)-3-(morpholin-4-ylmethyl)-3,4-dihydroisoquinolin-2(1H)-yl]carbonyl}phenyl)-N-(5-cyano-1,4-dimethyl-1H-pyrrol-3-yl)-N-(4-hydroxyphenyl)-1,2-dimethyl-1H-pyrrole-3-carboxamide hydrochloride]",IC50,Bcl-2 protein; read-out: IC50 (nM) Bcl-2 FP,10.5 nM
same,IC50,"[1]; Homo sapiens, RS4-11, 48 h",197 nM
"Cc1c(C(=O)N(c2ccc(O)cc2)c2cnn(C3CCOC3)c2)cc(-c2cc(Cl)ccc2C(=O)N2Cc3ccccc3C[C@H]2CN2CCOCC2)n1C (stereo partly drawn) [Example 127, 5-(5-Chloro-2-{[(3S)-3-(morpholin-4-ylmethyl)-3,4-dihydroisoquinolin-2(1H)-yl]carbonyl}phenyl)-N-(4-hydroxyphenyl)-1,2-dimethyl-N-[1-(tetrahydrofuran-3-yl)-1H-pyrazol-4-yl]-1H-pyrrole-3-carboxamide hydrochloride]",IC50,Bcl-2 protein; read-out: IC50 (nM) Bcl-2 FP,5.3 nM
same,IC50,"[1]; Homo sapiens, RS4-11, 48 h",111 nM
"Cc1c(C(=O)N(C)c2ccc(O)cc2)cc(-c2cc(CCNC(=O)Oc3ccccc3)ccc2C(=O)N2Cc3ccccc3C[C@H]2C)n1C [Example 45, Phenyl[2-(3-{4-[(4-hydroxyphenyl)(methyl)carbamoyl]-1,5-dimethyl-1H-pyrrol-2-yl}-4-{[(3R)-3-methyl-3,4-dihydroisoquinolin-2(1H)-yl]carbonyl}-phenyl)ethyl]carbamate]",IC50,Bcl-2 protein; IC50 (nM) Bcl-2 FP,38.9 nM
same,IC50,[1]; Homo sapiens,403 nM
"Cc1c(C(=O)N(c2ccc(O)cc2)c2cnc3c(ccn3C)c2)cc(-c2cc(Cl)ccc2C(=O)N2Cc3ccccc3C[C@H]2CCCN2CCOCC2)n1C [Example 393, 5-(5-Chloro-2-{[(3R)-3-[3-(morpholin-4-yl)propyl]-3,4-dihydroisoquinolin-2(1H)-yl]carbonyl}phenyl)-N-(4-hydroxyphenyl)-1,2-dimethyl-N-(1-methyl-1H-pyrrolo[2,3-b]pyridin-5-yl)-1H-pyrrole-3-carboxamide hydrochloride]",IC50,Bcl-2 protein; read-out: IC50 (nM) Bcl-2 FP,2.1 nM
same,IC50,"[1]; Homo sapiens, RS4-11, 48 h",1.95 nM
"Cc1c(C(=O)N(c2ccc(O)cc2)c2ccc3c(ccn3C)n2)cc(-c2cc(Cl)ccc2C(=O)N2Cc3ccccc3C[C@H]2CN2CCOCC2)n1C [Example 391, 5-(5-Chloro-2-{[(3S)-3-(morpholin-4-ylmethyl)-3,4-dihydroisoquinolin-2(1H)-yl]carbonyl}phenyl)-N-(4-hydroxyphenyl)-1,2-dimethyl-N-(1-methyl-1H-pyrrolo[3,2-b]pyridin-5-yl)-1H-pyrrole-3-carboxamide hydrochloride]",IC50,Bcl-2 protein; read-out: IC50 (nM) Bcl-2 FP,30.3 nM
same,IC50,"[1]; Homo sapiens, RS4-11, 48 h",255 nM
"Cc1c(C(=O)N(c2ccc(O)cc2)c2cnn(C)c2)cc(-c2cc3c(cc2C(=O)N2Cc4ccccc4C[C@H]2C)OCO3)n1CCO [Example 23, 1-(2-Hydroxyethyl)-N-(4-hydroxyphenyl)-2-methyl-5-(6-{[(3R)-3-methyl-3,4-dihydroisoquinolin-2(1H)-yl]carbonyl}-1,3-benzodioxol-5-yl)-N-(1-methyl-1H-pyrazol-4-yl)-1H-pyrrole-3-carboxamide]",IC50,Bcl-2 protein; read-out: IC50 (nM) Bcl-2 FP,3.6 nM
same,IC50,"[1]; Homo sapiens, RS4-11, 48 h",25.4 nM
"COc1ccc(-c2cc(C(=O)N(c3ccc(O)cc3)c3cc(C#N)n(C)c3C)c(C)n2C)c(C(=O)N2Cc3ccccc3C[C@H]2CN2CCOCC2)c1 [Example 417, N-(5-Cyano-1,2-dimethyl-1H-pyrrol-3-yl)-N-(4-hydroxyphenyl)-5-(4-methoxy-2-{[(3S)-3-(morpholin-4-ylmethyl)-3,4-dihydroisoquinolin-2(1H)-yl]carbonyl}phenyl)-1,2-dimethyl-1H-pyrrole-3-carboxamide hydrochloride]",IC50,Bcl-2 protein; read-out: IC50 (nM) Bcl-2 FP,3 nM
same,IC50,"[1]; Homo sapiens, RS4-11, 48 h",11 nM
"COc1ncc(N(C(=O)c2cc(-c3cc(Cl)ccc3C(=O)N3Cc4ccccc4C[C@H]3CN3CCOCC3)n(C)c2C)c2ccc(O)cc2)cn1 [Example 397, 5-(5-Chloro-2-{[(3S)-3-(morpholin-4-ylmethyl)-3,4-dihydroisoquinolin-2(1H)-yl]carbonyl}phenyl)-N-(4-hydroxyphenyl)-N-(2-methoxypyrimidin-5-yl)-1,2-dimethyl-1H-pyrrole-3-carboxamide]",IC50,Bcl-2 protein; read-out: IC50 (nM) Bcl-2 FP,4.5 nM
same,IC50,"[1]; Homo sapiens, RS4-11, 48 h",37.1 nM
"Cc1c(C(=O)N(c2ccccc2)c2ccc(O)cc2)cc(-c2cc3c(cc2C(=O)N2Cc4ccccc4C[C@H]2CN2CCOCC2)OCCO3)n1C [Example 22, N-(4-Hydroxyphenyl)-1,2-dimethyl-5-(7-{[(3S)-3-(morpholin-4-ylmethyl)-3,4-dihydroisoquinolin-2(1H)-yl]carbonyl}-2,3-dihydro-1,4-benzodioxin-6-yl)-N-phenyl-1H-pyrrole-3-carboxamide hydrochloride]",IC50,Bcl-2 protein; read-out: IC50 (nM) Bcl-2 FP,6.6 nM
same,IC50,"[1]; Homo sapiens, RS4-11, 48 h",45.7 nM
"Cc1c(C(=O)N(c2ccc(O)cc2)c2cccc(F)c2)cc(-c2cc3c(cc2C(=O)N2Cc4ccccc4C[C@H]2CN2CCOCC2)OCO3)n1C [Example 16, N-(3-Fluorophenyl)-N-(4-hydroxyphenyl)-1,2-dimethyl-5-(6-{[(3S)-3-(morpholin-4-ylmethyl)-3,4-dihydroisoquinolin-2(1H)-yl]carbonyl}-1,3-benzodioxol-5-yl)-1H-pyrrole-3-carboxamide hydrochloride]",IC50,Bcl-2 protein; read-out: IC50 (nM) Bcl-2 FP,12.6 nM
same,IC50,"[1]; Homo sapiens, RS4-11, 48 h",22.7 nM
"COCCc1c(C(=O)N(c2ccc(O)cc2)c2cnc3c(ccn3C)c2)cc(-c2cc3c(cc2C(=O)N2Cc4ccccc4C[C@H]2CN2CCOCC2)OCO3)n1C [Example 88, N-(4-Hydroxyphenyl)-2-(2-methoxyethyl)-1-methyl-N-(1-methyl-1H-pyrrolo[2,3-b]pyridin-5-yl)-5-(6-{[(3S)-3-(morpholin-4-ylmethyl)-3,4-dihydroisoquinolin-2(1H)-yl]carbonyl}4,3-benzodioxol-5-yl)-1H-pyrrole-3-carboxamide hydrochloride]",IC50,Bcl-2 protein; read-out: IC50 (nM) Bcl-2 FP,15.9 nM
same,IC50,[1],69.6 nM
"Cc1c(C(=O)N(c2ccccc2)c2ccc(O)cc2)cc(-c2cc(F)ccc2C(=O)N2Cc3ccccc3C[C@H]2CN2CCOCC2)n1CCCO [Example 11, 5-(5-Fluoro-2-{[(3S)-3-(morpholin-4-ylmethyl)-3,4-dihydroisoquinolin-2(1H)-yl]carbonyl}phenyl)-N-(4-hydroxyphenyl)-1-(3-hydroxypropyl)-2-methyl-N-phenyl-1H-pyrrole-3-carboxamide hydrochloride]",IC50,Bcl-2 protein; read-out: IC50 (nM) Bcl-2 FP,14.2 nM
same,IC50,"[1]; Homo sapiens, RS4-11, 48 h",202 nM
"COc1cc(C(=O)N2Cc3ccccc3C[C@H]2CN2CCOCC2)c(-c2cc(C(=O)N(c3ccc(O)cc3)c3cnc4c(ccn4C)c3)c(C)n2C)cc1F [Example 209, 5-(5-Fluoro-4-methoxy-2-{[(3S)-3-(morpholin-4-ylmethyl)-3,4-dihydroisoquinolin-2(1H)-yl]carbonyl}phenyl)-N-(4-hydroxyphenyl)-1,2-dimethyl-N-(1-methyl-1H-pyrrolo[2,3-b]pyridin-5-yl)-1H-pyrrole-3-carboxamide hydrochloride]",IC50,Bcl-2 protein; read-out: IC50 (nM) Bcl-2 FP,7.4 nM
same,IC50,"[1]; Homo sapiens, RS4-11, 48 h",25.4 nM
